Calls of active or inactive are those of the source. The calls are words filed in the database; no cut-off is given here.
Key:
[1] = system: Staphylococcus aureus; experiment: Antibacterial activity against Staphylococcus aureus ATCC 31007; assay type: functional
[2] = system: Staphylococcus aureus; experiment: In vivo antibacterial activity against Staphylococcus aureus ATCC 43300 in septicemia mouse model assessed as reduction in bacterial load in kidney at 10 mg/kg, administered every 12 hrs for 3 days; assay type: functional; parameters: scale not given: the % may be the effect or the level left
[3] = system: Staphylococcus aureus; experiment: Anti-biofilm activity in Staphylococcus aureus ATCC 43300 assessed as disruption rate of biofilm at 8 ug/ml measured by crystal violet staining method; assay type: functional; conditions: dose 8 µg/ml
[4] = system: Cell membrane; experiment: Induction of inner membrane permeabilization in Escherichia coli ATCC 25922 assessed as increase in PI uptake by measuring increase in fluorescence intensity at 4 to 32 ug/ml by propidium iodide staining based fluorescence analysis; assay type: subcellular; conditions: dose 4-32 µg/ml
[5] = system: Escherichia coli; experiment: Antibacterial activity against Escherichia coli ATCC 25922; assay type: functional
[6] = system: Escherichia coli; experiment: Anti-biofilm activity in Escherichia coli ATCC 25922 assessed as disruption rate of biofilm at 32 ug/ml measured by crystal violet staining method; assay type: functional; conditions: dose 32 µg/ml
[7] = system: Escherichia coli; experiment: Antibacterial activity against Escherichia coli ATCC 25922 assessed as bacterial killing at 8XMIC incubated for 3 hrs and measured by time-kill kinetic study; assay type: functional
[8] = system: Cell membrane; experiment: Induction of outer membrane permeabilization to NPN in Escherichia coli ATCC 25922 cells assessed as increase in fluorescence intensity at 4 to 32 ug/ml by NPN-probe based fluorescence spectrophotometric analysis; assay type: subcellular; conditions: dose 4-32 µg/ml
[9] = Cytotoxicity against human HepG2 cells assessed as cell viability at 128 ug/ml measured by SRB assay; assay type: toxicity, cell-based; conditions: dose 128 µg/ml, read-out: Activity
[10] = system: Escherichia coli; experiment: Anti-biofilm activity in Escherichia coli ATCC 25922 assessed as inhibition of biofilm formation at 16 ug/ml; assay type: functional
[11] = system: Staphylococcus aureus; experiment: Antibacterial activity against Staphylococcus aureus ATCC 43300 assessed as bacterial killing at 4 x MIC incubated for 9 hrs and measured by time-kill kinetic study; assay type: functional
[12] = system: Staphylococcus aureus; experiment: Anti-biofilm activity in Staphylococcus aureus ATCC 43300 assessed as disruption rate of biofilm at 4 ug/ml measured by crystal violet staining method; assay type: functional; conditions: dose 4 µg/ml
[13] = system: Cell membrane; experiment: Induction of cytoplasmic membrane depolarization in Staphylococcus aureus ATCC 43300 assessed as increase in fluorescence intensity at 1 to 8 times MIC measured by DiSC3-5 dye based fluorescence method; assay type: subcellular
[14] = system: Staphylococcus aureus; experiment: In vivo antibacterial activity against Staphylococcus aureus ATCC 43300 in septicemia mouse model assessed as log reduction in bacterial load in kidney at 10 mg/kg, administered every 12 hrs for 3 days; assay type: functional
[15] = system: Escherichia coli; experiment: Antibacterial activity against Escherichia coli ATCC 25922 assessed as resistance development by measuring fold increase in MIC; assay type: functional
[16] = system: Staphylococcus aureus; experiment: In vivo antibacterial activity against Staphylococcus aureus ATCC 43300 in septicemia mouse model assessed as log reduction in bacterial load in spleen at 10 mg/kg, administered every 12 hrs for 3 days; assay type: functional
[17] = system: Escherichia coli; experiment: Anti-biofilm activity in Escherichia coli ATCC 25922 assessed as disruption rate of biofilm at 8 ug/ml measured by crystal violet staining method; assay type: functional; conditions: dose 8 µg/ml
[18] = system: Escherichia coli; experiment: Anti-biofilm activity in Escherichia coli ATCC 25922 assessed as disruption rate of biofilm at 16 ug/ml measured by crystal violet staining method; assay type: functional; conditions: dose 16 µg/ml
[19] = system: Cell membrane; experiment: Induction of cell membrane disruption in Staphylococcus aureus ATCC 43300 assessed as increase in fluorescence intensity at 8 times MIC measured after 2 hrs by DAPI staining based fluorescence microscopic analysis
[20] = system: Staphylococcus aureus; experiment: Anti-biofilm activity in Staphylococcus aureus ATCC 43300 assessed as inhibition of biofilm formation at 8 ug/ml; assay type: functional
[21] = system: Cell membrane; experiment: Induction of cell membrane disruption in Escherichia coli ATCC 25922 assessed as increase in fluorescence intensity at 8 times MIC measured after 2 hrs by DAPI staining based fluorescence microscopic analysis
[22] = Cytotoxicity against human HepG2 cells assessed as cell viability at 64 ug/ml measured by SRB assay; assay type: toxicity, cell-based; conditions: at 64 µg/mL, read-out: Activity
[23] = Cytotoxicity against human HepG2 cells assessed as cell viability at 8 ug/ml measured by SRB assay; assay type: toxicity, cell-based; conditions: at 8 µg/mL, read-out: Activity
[24] = system: Cell membrane; experiment: Induction of cell membrane disruption in Escherichia coli ATCC 25922 assessed as increase in fluorescence intensity at 8 times MIC measured after 2 hrs by PI staining based fluorescence microscopic analysis; assay type: subcellular
[25] = Toxicity in septicemia mouse model infected with Staphylococcus aureus ATCC 43300 assessed as effect on spleen at 5 to 10 mg/kg, administered every 12 hrs for 3 days measured by histopathological analysis; assay type: organism-based; conditions: in vivo, dose 5-10 mg/kg
[26] = system: Cell membrane; experiment: Induction of cell membrane disruption in Staphylococcus aureus ATCC 43300 assessed as increase in fluorescence intensity at 8 times MIC measured after 2 hrs by PI staining based fluorescence microscopic analysis; assay type: subcellular
[27] = Cytotoxicity against human HepG2 cells assessed as cell viability at 32 ug/ml measured by SRB assay; assay type: toxicity, cell-based; conditions: at 32 µg/mL, read-out: Activity
[28] = Toxicity in septicemia mouse model infected with Staphylococcus aureus ATCC 43300 assessed as effect on liver at 5 to 10 mg/kg, administered every 12 hrs for 3 days measured by histopathological analysis; assay type: organism-based; conditions: in vivo, dose 5-10 mg/kg
[29] = system: Escherichia coli; experiment: Anti-biofilm activity in Escherichia coli ATCC 25922 assessed as inhibition of biofilm formation at 32 ug/ml; assay type: functional
[30] = Cytotoxicity against human HepG2 cells assessed as cell viability at 4 ug/ml measured by SRB assay; assay type: toxicity, cell-based; conditions: at 4 µg/mL, read-out: Activity
[31] = Hemolytic activity in sheep RBC; assay type: toxicity, cell-based, Ovis aries, Erythrocyte; conditions: sheep red blood cells (erythrocytes)
[32] = system: Staphylococcus aureus; experiment: In vivo antibacterial activity against Staphylococcus aureus ATCC 43300 in septicemia mouse model assessed as reduction in bacterial load in liver at 10 mg/kg, administered every 12 hrs for 3 days; assay type: functional; parameters: scale not given: the % may be the effect or the level left
[33] = system: Staphylococcus aureus; experiment: Anti-biofilm activity in Staphylococcus aureus ATCC 43300 assessed as inhibition of biofilm formation at 1 ug/ml; assay type: functional
[34] = system: Escherichia coli; experiment: Antibacterial activity against Escherichia coli ATCC 25922 assessed as bacterial killing at 4 x MIC incubated for 9 hrs and measured by time-kill kinetic study; assay type: functional
[35] = system: Staphylococcus aureus; experiment: Anti-biofilm activity in Staphylococcus aureus ATCC 43300 assessed as disruption rate of biofilm at 0.5 ug/ml measured by crystal violet staining method; assay type: functional; conditions: dose 0.5 µg/ml
[36] = system: Escherichia coli; experiment: Anti-biofilm activity in Escherichia coli ATCC 25922 assessed as disruption rate of biofilm at 64 ug/ml measured by crystal violet staining method; assay type: functional; conditions: dose 64 µg/ml
[37] = system: Staphylococcus aureus; experiment: In vivo antibacterial activity against Staphylococcus aureus ATCC 43300 in septicemia mouse model assessed as reduction in bacterial load in spleen at 10 mg/kg, administered every 12 hrs for 3 days; assay type: functional; parameters: scale not given: the % may be the effect or the level left
[38] = system: Staphylococcus aureus; experiment: Antibacterial activity against Staphylococcus aureus ATCC 25923; assay type: functional
[39] = system: Cell membrane; experiment: Induction of cytoplasmic membrane depolarization in Escherichia coli ATCC 25922 assessed as increase in fluorescence intensity at 1 to 8 times MIC measured by DiSC3-5 dye based fluorescence method; assay type: subcellular

C=CCc1ccc(OCCC[N+](C)(C)CCCCCC)c(-c2ccc(OCCC[N+](C)(C)CCCCCC)c(CC=C)c2)c1.[Br-].[Br-]
MIC [1]: 0.5 µg/mL | Activity [2]: 98.7% | Activity [3]: 28.56% | Activity [4]: Active | MIC [5]: 4 µg/mL | Activity [6]: 57.36% | Activity [7]: 100% | Activity [8]: Active | viability at 128 ug/ml [9]: 36.6% | inhibition at 16 µg/mL [10]: 65.4% | Activity [11]: >=99% | Activity [12]: 17.61% | Activity [13]: Active | log(activity) [14]: 1.94 | fold change (FC) [15]: <4 | log(activity) [16]: 2.19 | Activity [17]: 46.42% | Activity [18]: 51.55% | Activity [19]: Active | inhibition at 8 µg/mL [20]: 93.7% | Activity [21]: Active | viability at 64 ug/ml [22]: 55.2% | viability at 8 ug/ml [23]: 90.3% | Activity [24]: Active | Activity [25]: Non-Toxic | Activity [26]: Active | viability at 32 ug/ml [27]: 68.1% | Activity [28]: Non-Toxic | inhibition at 32 µg/mL [29]: 87.4% | viability at 4 ug/ml [30]: 94.7% | HC50 [31]: 410 µg/mL | Activity [32]: 99.5% | inhibition at 1 µg/mL [33]: 12.9% | Activity [34]: >=99% | Activity [35]: 5.22% | Activity [36]: 65.6% | Activity [37]: 99.3% | MIC [38]: 2 µg/mL | Activity [39]: Active
